Experimental data published in patent publication US20210115040A1, “OGA INHIBITOR COMPOUNDS” (Janssen Pharmaceutica NV, priority 2018, published 2021).

How the values were obtained:
[1] = target: T1, recombinant human Meningioma Expressed Antigen 5 (MGEA5), also referred to as O-GlcNAcase (OGA) (Homo sapiens, UniProt O60502); assay: OGA biochemical assay (inhibition of FM-GlcNAc hydrolysis, fluorescence); details: FM-GlcNAc substrate; for IC50: 6 h at room temperature, read-out: Enzymatic hOGA, pIC50 (converted); for Emax / Enzymatic Emax (%): maximal effect; for Emax: read-out: Enzymatic Emax (%)
T1 construct: Full length OGA enzyme was purchased at OriGene (cat #TP322411); purchased OriGene TP322411
T1 sequence (O60502 1-916): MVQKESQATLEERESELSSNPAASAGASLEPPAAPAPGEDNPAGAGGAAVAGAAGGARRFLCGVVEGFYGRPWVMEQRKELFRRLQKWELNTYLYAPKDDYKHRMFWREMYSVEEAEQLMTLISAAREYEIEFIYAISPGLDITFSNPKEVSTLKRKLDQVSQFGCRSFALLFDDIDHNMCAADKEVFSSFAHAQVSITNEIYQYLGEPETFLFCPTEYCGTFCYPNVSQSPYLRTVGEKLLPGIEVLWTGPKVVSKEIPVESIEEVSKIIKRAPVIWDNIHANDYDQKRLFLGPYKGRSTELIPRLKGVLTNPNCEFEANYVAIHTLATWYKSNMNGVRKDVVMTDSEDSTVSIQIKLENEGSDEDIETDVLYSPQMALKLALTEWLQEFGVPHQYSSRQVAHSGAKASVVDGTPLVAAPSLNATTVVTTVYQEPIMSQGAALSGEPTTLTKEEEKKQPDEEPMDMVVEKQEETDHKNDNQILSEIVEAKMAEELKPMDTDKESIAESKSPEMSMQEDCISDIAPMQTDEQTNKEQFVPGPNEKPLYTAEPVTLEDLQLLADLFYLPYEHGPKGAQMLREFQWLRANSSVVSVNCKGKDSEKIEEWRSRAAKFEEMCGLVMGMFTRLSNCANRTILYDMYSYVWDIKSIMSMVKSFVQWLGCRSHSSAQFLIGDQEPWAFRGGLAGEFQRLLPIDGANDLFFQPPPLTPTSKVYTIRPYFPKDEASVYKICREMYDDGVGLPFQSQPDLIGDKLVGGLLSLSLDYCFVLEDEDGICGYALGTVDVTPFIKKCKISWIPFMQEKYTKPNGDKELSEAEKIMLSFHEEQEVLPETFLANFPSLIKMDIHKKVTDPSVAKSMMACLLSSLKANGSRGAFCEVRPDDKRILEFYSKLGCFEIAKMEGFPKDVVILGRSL
Method in brief: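 Full-length OGA (2 nM) pre-incubated 60 min at room temperature with compound, then FM-GlcNAc (100 uM final) hydrolysed 6 h at room temperature in 200 mM citrate/phosphate pH 7.2 with 0.005% Tween-20. Stopped with carbonate pH 11.0; fluorescein read at ex 485/em 538 nm. IC50 and Hill coefficient from curve fit between no-inhibitor and saturating-standard controls.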

OGA = target: T2, OGA (Homo sapiens, UniProt O60502); assay: OGA cellular assay (ICC detection of O-GlcNAcylated proteins in HEK293 cells inducible for P301L mutant human Tau); format: cell-based; details: for Emax: HEK293, HEK293 cells inducible for P301L mutant human Tau; for Emax / Cellular Emax (%): maximum = Thiamet G 200 uM; for EC50 / Cellular Emax (%): HEK293 cells inducible for P301L mutant human Tau; for EC50: 6 hours incubation, read-out: Cellular hOGA, pEC50 (converted)
T2 construct: HEK293 cells inducible for P301L mutant human Tau (isoform 2N4R) were established at Janssen; endogenous in cells; host or cells: HEK293 cells inducible for P301L mutant human Tau (2N4R)
T2 sequence (O60502 1-916): T1 sequence (O60502 1-916)
Experimental: HEK293 cells inducible for P301L mutant human Tau (isoform 2N4R) were established at Janssen. Thiamet-G was used for both plate validation (high control) and as reference compound (reference EC50 assay validation). OGA inhibition is evaluated through the immunocytochemical (ICC) detection of O-GlcNAcylated proteins by the use of a monoclonal antibody (CTD110.6; Cell Signaling, #9875) detecting 0-GlcNAcylated residues as previously described (Dorfmueller et al. 2010 Chemistry & biology, 17:1250). Inhibition of OGA will result in an increase of O-GlcNAcylated protein levels resulting in an increased signal in the experiment. Cell nuclei are stained with Hoechst to give a cell culture quality control and a rough estimate of immediate compounds toxicity, if any. ICC pictures are imaged with a Perkin Elmer Opera Phenix plate microscope and quantified with the provided software Perkin Elmer Harmony 4.1.
Cells were propagated in DMEM high Glucose (Sigma, #D5796) following standard procedures. 2 days before the cell assay cells are split, counted and seeded in Poly-D-Lysine (PDL) coated 96-wells (Greiner, #655946) plate at a cell density of 12,000 cells per cm^2 (4,000 cells per well) in 100 μl of Assay Medium (Low Glucose medium is used to reduce basal levels of GlcNAcylation) (Park et al. 2014 The Journal of biological chemistry 289:13519). At the day of compound test medium from assay plates was removed and replenished with 90 μl of fresh Assay Medium. 10 μl of compounds at a 10fold final concentration were added to the wells. Plates were centrifuged shortly before incubation in the cell incubator for 6 hours. DMSO concentration was set to 0.2%. Medium is discarded by applying vacuum. For staining of cells medium was removed and cells washed once with 100 μl D-PBS (Sigma, #D8537). From next step onwards unless other stated assay volume was always 50 μl and incubation was performed without agitation and at room temperature. Cells were fixed in 50 μl of a 4% paraformaldehyde (PFA, Alpha aesar, #043368) PBS solution for 15 minutes at room temperature. […] Before analysis samples were washed 2 times manually for 5 minutes in ICC base buffer.
Imaging is performed using Perkin Elmer Phenix Opera using a water 20× objective and recording 9 fields per well. Intensity readout at 488 nm is used as a measure of O-GlcNAcylation level of total proteins in wells. To assess potential toxicity of compounds nuclei were counted using the Hoechst staining. IC50-values are calculated using parametric non-linear regression model fitting. As a maximum inhibition Thiamet G at a 200 uM concentration is present on each plate. In addition, a concentration response of Thiamet G is calculated on each plate.

Row | IC50 [1] [nM] | Emax [1] [%] | Emax (OGA) [%] | EC50 (OGA) [nM] | Enzymatic Emax (%) [1] [%] | Cellular Emax (%) (OGA) | Structure (SMILES)
1 | 7.94 | 101 | 79 | 25.1 |  |  | COc1cc(C[C@H]2CCCN([C@H](C)c3ccc4oc(C)nc4n3)C2)cc(C)n1 (relative stereo) [Compound 23a]
2 | 20 | 100 | 76 | 158 |  |  | COc1cc(C2CCCN(C(C)c3ccc4oc(C)nc4n3)C2)cc(C)n1 (racemic) [Compound 18]
3 | 7.94 | 99 | 81 | 39.8 |  |  | Cc1cc(C[C@H]2CCCN([C@H](C)c3ccc4oc(C)nc4n3)C2)cc(C(F)(F)F)n1 [Compound 24a]
4 | 398 | 99 | 11 | > 1000 |  |  | Cc1cc(OC[C@@H]2CCN(C(C)c3ccc4sc(C)nc4n3)C2)cc(C)n1 (mixture of isomers) [Compound 47]
5 | 12.6 | 102 | 79 | 200 |  |  | Cc1cc(C[C@H]2CCCN(C(C)c3cnc4oc(C)nc4c3)C2)cc(C)n1 (mixture of isomers) [Compound 30]
6 | 3.16 | 101 | 91 | 12.6 |  |  | Cc1cc(C[C@H]2CCCN(C(C)c3ccc4oc(C)nc4n3)C2)cc(C)n1 (mixture of isomers) [Compound 22]
7 | 2.51 |  | 79 | 10 | 101 |  | Cc1cc(C[C@H]2CCCN(C(C)c3ccc4sc(C)nc4n3)C2)cc(C)n1 (single isomer, unassigned) [Compound 42b]
8 | 126 | 98 | 27 | > 1000 |  |  | Cc1cc(CO[C@@H]2CCCN(C(C)c3ccc4sc(C)nc4n3)C2)cc(C)n1 (stereo partly shown) [Compound 68]
9 | 25.1 | 100 | 71 | 251 |  |  | Cc1cc(C[C@H]2CCCN(C(C)c3ccc4cn(C)nc4n3)C2)cc(C)n1 (mixture of isomers) [Compound 12ab]
10 | 100 | 99 | 23 | > 1000 |  |  | Cc1cc(C[C@H]2CCCN(C(C)c3ccc4nc(C)[nH]c4n3)C2)cc(C)n1 (mixture of isomers) [Compound 8]
11 | 7940 | 55 | 2 | > 1000 |  |  | Cc1cc(C[C@H]2CCCN(Cc3cnc4nc(C)oc4c3)C2)cc(C)n1 [Compound 37]
12 | 5.01 | 101 | 85 | 15.8 |  |  | Cc1cc(OC[C@H]2CCCN(C(C)c3ccc4sc(C)nc4n3)C2)cc(C)n1 (mixture of isomers) [Compound 46ab]

More lines, now with the values behind:

Row | Structure (SMILES) | IC50 [1] [nM] | Emax [1] [%] | Emax (OGA) [%] | EC50 (OGA) [nM] | Enzymatic Emax (%) [1] [%] | Cellular Emax (%) (OGA)
13 | Cc1cc(OC[C@H]2CCN(C(C)c3ccc4sc(C)nc4n3)C2)cc(C)n1 (mixture of isomers) [Compound 48] | 794 | 93 | 16 | > 1000 |  | 
14 | Cc1cc([C@H]2CCCN([C@@H](C)c3ccc4sc(C)nc4n3)C2)nc(C)n1 (racemic) [Compound 71] | 7940 | 51 | -5 | > 1000 |  | 
15 | Cc1cc(C2CCCN(C(C)c3ccc4sc(C)nc4n3)C2)c(F)c(C)n1 (single isomer, unassigned) [Compound 78] | 10 |  |  | 79.4 | 93 | 80
16 | Cc1cc([C@H]2CCCN([C@@H](C)c3nc4nc(C)sc4cc3F)C2)cc(C)n1 (single isomer, unassigned) [Compound 87] | 2.51 | 99 | 79 | 3.16 |  | 
17 | Cc1cc(C2CCCN(C(C)c3ccc4sc(C)nc4n3)C2)c(F)c(C)n1 (single isomer, unassigned) [Compound 77] | 2510 | 75 |  | > 1000 |  | −10
18 | Cc1cc(CO[C@H]2CCCN(C(C)c3cc4nc(C)sc4cc3F)C2)cc(C)n1 (mixture of isomers) [Compound 99] | 3.16 | 99 | 66 | 63.1 |  | 
19 | Cc1cc(C[C@@H]2CCN([C@H](C)c3cc4nc(C)sc4cc3F)C2)cc(C)n1 [Compound 59] | 200 | 98 | 11 | > 1000 |  | 
20 | Cc1cc(C[C@@H]2CCN(C(C)c3ccc4sc(C)nc4n3)C2)nc(C)n1 (single isomer, unassigned) [Compound 72] | 316 | 95 | 18 | > 1000 |  | 
21 | Cc1cc(C[C@H]2CCN(C(C)c3cnc4[nH]c(C)nc4c3)C2)cc(C(F)(F)F)n1 (stereo partly shown) [Compound 104] | 501 | 94 | 20 | > 1000 |  | 
22 | Cc1cc(OC[C@H]2CCCN(C(C)c3ccc4sc(C)nc4n3)C2)nc(C)n1 (mixture of isomers) [Compound 49ab] | 12.6 | 100 | 68 | 100 |  | 
23 | COc1cc(C2CCCN(C(C)c3ccc4oc(C)nc4n3)C2)cc(C(F)(F)F)n1 (racemic) [Compound 20] | 20 | 101 | 60 | 631 |  | 
24 | Cc1cc(C[C@@H]2CCN([C@@H](C)c3cc4nc(C)sc4cc3F)C2)cc(C)n1 [Compound 60] | 2 | 99 | 66 | 63.1 |  | 
25 | Cc1cc([C@H]2CCCN(C(C)c3nc4nc(C)[nH]c4cc3F)C2)cc(C)n1 (stereo partly shown) [Compound 82] | 126 | 97 | 39 | > 1000 |  | 
26 | Cc1cc(NC[C@H]2CCCN(C(C)c3ccc4sc(C)nc4n3)C2)nc(C)n1 (stereo partly shown) [Compound 108] | 7.94 | 101 | 84 | 12.6 |  | 
27 | Cc1cc([C@H]2CCCN([C@H](C)c3nc4nc(C)sc4cc3F)C2)cc(C)n1 (single isomer, unassigned) [Compound 86] | 1580 | 95 | 12 | > 1000 |  | 
28 | Cc1cc(C)nc(CO[C@@H]2CCN(C(C)c3ccc4sc(C)nc4n3)C2)c1 (stereo partly shown) [Compound 80] | 2000 | 85 | 5 | > 1000 |  | 
